Experimental findings from the NIST ThermoML archive (doi:10.1021/je900503p) are described below.

Where “and” joins values, the source holds several entries; their conditions need not be identical. Equal entries are not always repeated. ± gives the expanded uncertainty stated by the source.

The conditions of series [1]: 101 kPa, Liquid.
Series [2] can be described thus: refractive index (Na D-line) (dimensionless). Particulars: 101.33 kPa, Liquid.
Series [3] in a line: relative permittivity at zero frequency (dimensionless). The conditions noted are these: 101 kPa, Liquid, Dekameter.

By mass density is commonly meant mass per unit of volume. A word on the refractive index: it is the speed of light in vacuum divided by its phase velocity in the sample. On to `O=C1CCCO1` [γ-butyrolactone], for which the mass density in series [1] (293.15 K) was 1128.79 ± 0.58 kg/m3; in series [1] (298.15 K), 1123.75 ± 0.57 kg/m3; in series [1] (303.15 K) it was 1118.79 ± 0.56 kg/m3; in series [1] (313.15 K) it was 1121.76 ± 0.56 kg/m3 and 1108.88 ± 0.54 kg/m3. Further, the refractive index in series [2] (293.15 K) is reported as 1.437 ± 0.0013; in series [2] (298.15 K) it was 1.4356 ± 0.0013; in series [2] (303.15 K), 1.4334 ± 0.0013; in series [2] (313.15 K), 1.429 ± 0.0013. Further, the “relative permittivity at zero frequency” value in series [3] (293.15 K) is 42.34 ± 0.06 and 42.81 ± 0.06; in series [3] (298.15 K) it was 41.64 ± 0.06; in series [3] (303.15 K), 41.1 ± 0.06; in series [3] (313.15 K), 39.92 ± 0.06.

As to `CCCCO` [butan-1-ol], the mass density stood at 809.52 ± 0.43 kg/m3 in series [1] (293.15 K), 805.58 ± 0.43 kg/m3 in series [1] (298.15 K), 801.92 ± 0.44 kg/m3 in series [1] (303.15 K) and 794.26 ± 0.45 kg/m3 in series [1] (313.15 K). Besides, the refractive index in series [2] (293.15 K) was 1.3992 ± 0.0012; in series [2] (298.15 K), 1.3972 ± 0.0012; in series [2] (303.15 K) it was 1.3963 ± 0.0012; in series [2] (313.15 K), 1.392 ± 0.0012. Moreover, the “relative permittivity at zero frequency” value is given as 18.26 ± 0.06 in series [3] (293.15 K), 17.54 ± 0.06 in series [3] (298.15 K), 16.89 ± 0.06 in series [3] (303.15 K) and 15.45 ± 0.06 in series [3] (313.15 K).

For the molecule `CCC(C)O` (stereo unspecified) [butan-2-ol], the mass density in series [1] (293.15 K) is reported as 805.54 ± 0.46 kg/m3; in series [1] (298.15 K) it was 802.06 ± 0.47 kg/m3; in series [1] (303.15 K), 798.45 ± 0.47 kg/m3; in series [1] (313.15 K), 790.07 ± 0.48 kg/m3. Besides, the refractive index turned out to be 1.3992 ± 0.0012 in series [2] (293.15 K), 1.3954 ± 0.0012 in series [2] (298.15 K), 1.3948 ± 0.0012 in series [2] (303.15 K) and 1.391 ± 0.0012 in series [2] (313.15 K). In addition, the “relative permittivity at zero frequency” value in series [3] (293.15 K) is 17.51 ± 0.06; in series [3] (298.15 K), 16.58 ± 0.06; in series [3] (303.15 K), 15.75 ± 0.06; in series [3] (313.15 K) it was 14.44 ± 0.06.
